Results from publication PMC2248166, “Quantitative peptide binding motifs for 19 human and mouse MHC class I molecules derived using positional scanning combinatorial peptide libraries” (Immunome Research, 2008).

Key:
Type in all cases: binding
HLA B*5101 = HLA B*5101 (Homo sapiens, UniProt P01889, A329T/A93T/A95T/C349S/D138N/D201E/D98Y/E187L/E204Q/E69T/G107R/I218V/K202T/L105A/L119W/N104I/Q94N/R106L/R155S/R180L/S101N/S121T/S35A/S48A/V306I/V36M/Y195H/Y91F)
HLA A*3201 = HLA A*3201 (Homo sapiens, UniProt P04439, A270S/D101S/D185E/E176V/E277Q/F133L/G103R/G107R/G231S/H175R/I121M/I218V/I322F/K168Q/L105A/L300P/L318F/M331R/P208A/P217A/Q94H/R106L/R138Q/S129P/T104I/T323A/T345S/V100E/V321M/V358M); test: biochemical
HLA B*0801 = HLA B*0801 (Homo sapiens, UniProt P01889, A93T/A95T/D138N/E176V/E187T/K202T/Q94N/R180D/S35A/V36M/Y33D/Y91F); test: biochemical
H-2 K^k = H-2 K^k (Mus musculus, UniProt P04223)
Chain of H-2 K^k (P01887 21-119): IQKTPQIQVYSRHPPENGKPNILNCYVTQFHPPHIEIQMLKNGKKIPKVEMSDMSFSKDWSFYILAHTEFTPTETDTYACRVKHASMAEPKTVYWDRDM
Chain of H-2 K^k (P04223 22-369): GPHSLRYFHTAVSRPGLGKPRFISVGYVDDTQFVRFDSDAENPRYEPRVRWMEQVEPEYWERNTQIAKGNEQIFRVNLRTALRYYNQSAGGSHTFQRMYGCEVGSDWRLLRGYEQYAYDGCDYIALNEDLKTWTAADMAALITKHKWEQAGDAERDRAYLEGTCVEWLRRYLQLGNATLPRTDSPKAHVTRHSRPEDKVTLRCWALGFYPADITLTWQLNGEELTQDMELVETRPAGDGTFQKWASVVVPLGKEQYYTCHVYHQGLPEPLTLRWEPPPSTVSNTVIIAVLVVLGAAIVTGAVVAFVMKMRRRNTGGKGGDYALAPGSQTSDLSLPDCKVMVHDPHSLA

HLA B*1503 = HLA B*1503 (Homo sapiens, UniProt P01889, A329T/A93T/A95T/C349S/D201E/D98Y/E187L/E204Q/K202T/N87E/Q94N/R155S/R180L/S121R/S35A/V306I/V36M/Y140S/Y91S); test: biochemical
HLA B*5401 = HLA B*5401 (Homo sapiens, UniProt P01889, A329T/C349S/D138N/D201E/E176V/E187T/E204Q/E69G/I76V/K202T/L119W/R155S/R180L/S121T/S35A/S48A/V127L/V306I/V36M/Y140L)
H-2 D^b = H-2 D^b (Mus musculus, UniProt P01899)
Chain of H-2 D^b (P01887 21-119): as the sequence (P01887 21-119) above
Chain of H-2 D^b (P01899 25-362): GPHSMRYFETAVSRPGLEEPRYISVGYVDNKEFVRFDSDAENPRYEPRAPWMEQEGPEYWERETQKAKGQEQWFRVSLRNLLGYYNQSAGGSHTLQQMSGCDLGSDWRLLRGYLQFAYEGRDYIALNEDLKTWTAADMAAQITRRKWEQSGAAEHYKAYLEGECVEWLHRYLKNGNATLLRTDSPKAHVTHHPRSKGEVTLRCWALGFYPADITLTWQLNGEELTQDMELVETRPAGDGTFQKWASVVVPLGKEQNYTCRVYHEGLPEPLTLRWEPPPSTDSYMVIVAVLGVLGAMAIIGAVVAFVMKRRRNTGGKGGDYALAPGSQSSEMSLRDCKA

H-2 K^d = H-2 K^d (Mus musculus, UniProt P01902)
Chain of H-2 K^d (P01887 21-119): as the sequence (P01887 21-119) above
Chain of H-2 K^d (P01902 22-368): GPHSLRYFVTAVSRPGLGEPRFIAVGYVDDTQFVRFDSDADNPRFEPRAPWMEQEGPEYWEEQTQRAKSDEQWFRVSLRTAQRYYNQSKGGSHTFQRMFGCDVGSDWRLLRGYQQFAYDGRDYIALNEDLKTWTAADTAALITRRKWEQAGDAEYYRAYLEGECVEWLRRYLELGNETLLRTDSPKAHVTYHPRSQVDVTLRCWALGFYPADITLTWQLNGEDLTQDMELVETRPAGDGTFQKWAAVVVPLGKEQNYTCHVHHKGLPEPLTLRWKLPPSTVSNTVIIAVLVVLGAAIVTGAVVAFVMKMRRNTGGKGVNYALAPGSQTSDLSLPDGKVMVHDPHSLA

HLA B*3501 = HLA B*3501 (Homo sapiens, UniProt P01889, A329T/A93T/A95T/C349S/D201E/D98Y/E176V/E187L/E204Q/E69T/I218V/K202T/L119I/Q94N/R155S/R180L/S121R/S35A/S48A/T118I/V127L/V306I/V36M/Y140S/Y91F)
HLA B*5301 = HLA B*5301 (Homo sapiens, UniProt P01889, A329T/A93T/A95T/C349S/D201E/D98Y/E176V/E187L/E204Q/E69T/G107R/I218V/K202T/L105A/L119I/N104I/Q94N/R106L/R155S/R180L/S101N/S121R/S35A/S48A/T118I/V127L/V306I/V36M/Y140S/Y91F)
HLA A*3001 = HLA A*3001 (Homo sapiens, UniProt P04439, D140H/D185E/E176W/F33S/G80R/H175R/K168Q/R138E/R41S); test: biochemical
HLA B*5802 = HLA B*5802 (Homo sapiens, UniProt P01889, A329T/C349S/D201E/D98Y/E176V/E187L/E204Q/E69T/G107R/I218V/I90N/K202T/L105A/N104I/N87E/Q89R/Q94S/R106L/R155S/R180L/R86G/S101N/S121W/S35A/S48A/V127L/V306I/V36M/Y140S/Y91M)
HLA B*1501 = HLA B*1501 (Homo sapiens, UniProt P01889, A329T/A93T/A95T/C349S/D201E/D98Y/E187L/E204Q/E69M/E70A/K202T/N87E/Q94N/R155S/R180W/S121R/S35A/S48A/V306I/V36M/Y140S/Y91S); test: biochemical
H-2 D^d = H-2 D^d (Mus musculus, UniProt P01900)
Chain of H-2 D^d (P01900 whole entry, looked up): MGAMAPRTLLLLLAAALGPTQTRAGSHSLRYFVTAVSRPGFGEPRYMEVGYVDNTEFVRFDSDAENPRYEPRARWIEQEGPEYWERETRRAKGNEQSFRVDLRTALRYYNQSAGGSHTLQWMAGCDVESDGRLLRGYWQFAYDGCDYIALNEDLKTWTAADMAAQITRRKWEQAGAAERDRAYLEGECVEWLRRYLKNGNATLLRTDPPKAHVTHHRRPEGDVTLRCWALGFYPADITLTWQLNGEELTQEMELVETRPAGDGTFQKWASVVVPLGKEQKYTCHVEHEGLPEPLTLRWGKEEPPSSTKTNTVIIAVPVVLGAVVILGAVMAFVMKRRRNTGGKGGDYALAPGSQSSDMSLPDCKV

HLA A*6802 = HLA A*6802 (Homo sapiens, UniProt P04439, A269V/D140Y/D185E/E176V/E277Q/E87N/F33Y/G231S/I121R/I166T/I218V/L180W/L300P/L318F/N151K/P208A/P217A/Q86R/R138H/R169H/S129P/T345S/V36M)
HLA B*5801 = HLA B*5801 (Homo sapiens, UniProt P01889, A329T/C349S/D201E/D98Y/E176V/E187L/E204Q/E69T/G107R/I218V/I90N/K202T/L105A/L119I/N104I/N87E/Q89R/Q94S/R106L/R155S/R180L/R86G/S101N/S121R/S35A/S48A/T118I/V127L/V306I/V36M/Y140S/Y91M)

Row | Sequence | Normalized average relative binding affinity(ARB) (HLA B*5101) | Normalized average relative binding affinity(ARB) (HLA A*3201) | Normalized average relative binding affinity(ARB) (HLA B*0801) | Normalized average relative binding affinity(ARB) (H-2 K^k) | Normalized average relative binding affinity(ARB) (HLA B*1503) | Normalized average relative binding affinity(ARB) (HLA B*5401) | Normalized average relative binding affinity(ARB) (H-2 D^b) | Normalized average relative binding affinity(ARB) (H-2 K^d) | Normalized average relative binding affinity(ARB) (HLA B*3501) | Normalized average relative binding affinity(ARB) (HLA B*5301) | Normalized average relative binding affinity(ARB) (HLA A*3001) | Normalized average relative binding affinity(ARB) (HLA B*5802) | Normalized average relative binding affinity(ARB) (HLA B*1501) | Normalized average relative binding affinity(ARB) (H-2 D^d) | Normalized average relative binding affinity(ARB) (HLA A*6802) | Normalized average relative binding affinity(ARB) (HLA B*5801)
1 | XXXXXXXVX [3064.0158] | 0.32 | 0.62 | 0.48 | 0.38 | 0.34 | 0.10 | 0.35 | 0.37 | 0.37 | 0.51 | 0.19 | 0.26 | 0.38 | 0.52 | 0.17 | 0.20
2 | XXXXXXXWX [3064.0159] | 0.20 | 0.089 | 0.11 | 0.18 | 0.13 | 0.051 | 0.13 | 0.26 | 0.047 | 0.099 | 0.16 | 0.16 | 0.035 | 0.27 | 0.16 | 0.84
3 | XXXXXXXYX [3064.0160] | 0.67 | 0.24 | 0.13 | 0.38 | 0.17 | 0.0018 | 0.97 | 0.56 | 0.16 | 0.23 | 1.0 | 1.0 | 0.20 | 0.40 | 0.22 | 0.42
4 | XXXXXXYXX [3064.0140] | 1.0 | 0.55 | 0.27 | 0.092 | 0.17 | 0.32 | 1.0 | 0.11 | 0.32 | 0.12 | 0.20 | 0.069 | 0.28 | 0.076 | 0.62 | 0.94
5 | XXXXXYXXX [3064.0120] | 0.097 | 0.38 | 0.0094 | 0.35 | 0.40 | 0.19 | 0.68 | 0.26 | 0.061 | 1.0 | 0.21 | 0.64 | 0.20 | 0.83 | 0.43 | 1.0
